Cell viability and CC50 data for ten compounds are collected here from ChEMBL document CHEMBL1131795, “The spiroketals containing a benzyloxymethyl moiety at C8 position showed the most potent apoptosis-inducing activity” (1999).

The structures appear in SMILES notation.

Common to all, as to assay type: functional
The species entered for test [1] is Homo sapiens. As to the kind of experiment: Cell viability of serum-deprived Jurkat cells were determined, 24 hours after incubation with 20 uM concentration of the compound, by MTT-assay.
The species named for test [2] is Homo sapiens. As to the kind of experiment: Cell viability of serum-deprived Jurkat cells were determined, 24 hours after incubation with 100 uM concentration of the compound, by MTT-assay.
The species entered for test [3] is Homo sapiens. The experiment in a line: Concentration required to cause death of human T cell leukemia Jurkat cell was determined. The note with it: read-out: LC50 (the source's name).

In the case of `C[C@@H]1CCCO[C@@]12CCCCO2`, the Cell viability was found to be 98.6% in test [1] and 87.4% in test [2].
The matching figures for `C[C@@H]1CCCO[C@@]12CC[C@H](C)[C@@H](CO)O2`: 86% and 43.8%.
The matching figures for `CC1CC[C@]2(CCCCO2)OC1` (some centres not stated): 97.7% and 84.6%.
For `C[C@@H]1CCCO[C@]12O[C@H](CO[Si](c1ccccc1)(c1ccccc1)C(C)(C)C)[C@@H](C)C[C@H]2S(=O)(=O)c1ccccc1`, the Cell viability in test [1] was determined as 79.5%; in test [2], 68.4%.
On to `C[C@@H]1CCCO[C@@]12CC[C@H](C)[C@@H](CO[Si](c1ccccc1)(c1ccccc1)C(C)(C)C)O2`, for which the Cell viability in test [1] came to 38.2%; in test [2], 43%.
Take `C[C@@H]1CCCO[C@@]12CC[C@H](C)[C@@H](COC1CCCCO1)O2` (some centres not stated): the Cell viability turned out to be 84.1% in test [1] and 60.1% in test [2].
As for `C[C@@H]1CCCO[C@@]12CC[C@H](C)[C@@H](COCOCc1ccccc1)O2`, the Cell viability is given as 77.9% in test [1] and 0.3% in test [2]. Also, the CC50 in test [3] turned out to be 32 µM.
The matching figures for `C[C@@H]1CCCO[C@@]12CC[C@H](C)[C@@H](COCc1ccccc1)O2`: 1.7%, 0% and 14 µM.
With `C[C@@H]1CCCO[C@]12O[C@H](CO)[C@@H](C)C[C@H]2S(=O)(=O)c1ccccc1`, the Cell viability in test [1] turned out to be 67.1%; in test [2] it was 39%.
The matching figures for `COCOC[C@H]1O[C@@]2(CC[C@@H]1C)OCCC[C@H]2C`: 89.1% and 81.5%.
